US8921373B2, “Compounds having TRPV1 antagonistic activity and uses thereof” (Shionogi & Co., Ltd., priority 2010, dated 2014)

Experiments:
human recombinant TRPV1 [1] = molecular target: T1, human recombinant TRPV1 (Homo sapiens (Human), UniProt Q8NER1); assay: TRPV1 Capsaicin-Based Assay (Protocol 2, TRPV1/CHO cells, Fluo-4, FLIPR); assay type: cell-based; settings: TRPV1/CHO cells, capsaicin 100 nM final; read-out: IC50 value by the Capsaicin-Based Assay
Method: For Protocol 2, a Chinese Hamster Ovary cell line (CHO) that has been engineered to constitutively express human recombinant TRPV1 was used (TRPV1/CHO cells). The TRPV1/CHO cell line was generated as described below.
One day prior to assay, TRPV1/CHO cells were seeded in 96-well clear-bottom black plates (20,000 cells/well) in growth media. On the day of the experiment, the cells were washed with 0.2 mL 1× Hank's Balanced Salt Solution (Life Technologies) containing 1.6 mM CaCl2 and 20 mM HEPES, pH 7.4 (“wash buffer”). Subsequently, the cells were loaded by incubation in 0.1 mL of wash buffer containing Fluo-4 at 3 μM final concentration. After 1 hour, the cells were washed twice with 0.2 mL wash buffer and resuspended in 0.1 mL wash buffer. The plates were then transferred to a Fluorescence Imaging Plate Reader (Molecular Devices). Fluorescence intensity was monitored for 15 seconds to establish a baseline. Subsequently, test compounds diluted in assay buffer (1× Hank's Balanced Salt Solution containing 1 mM CaCl2 and 20 mM HEPES, pH 7.4) containing 1% DMSO were added to the cell plate and fluorescence was monitored for 2 minutes. […] Human TRPV1 was then activated by the addition of 50 μL capsaicin (100 nM final concentration) and plates incubated for an additional 3 min. Data were collected over the entire time course and analyzed using Excel and the curve-fitting formula GraphPad Prism.

[2] = Measurement of body temperature increase (rectal body temperature); assay type: in vivo, rat; settings: Crl/SD rats, oral; for Body temperature increase ΔTb: 1 mg/mL in 0.5% methylcellulose at 10 mL/kg, difference from vehicle group average; for Body temperature increase: 1 mg/mL at 10 mL/kg
Method: Test Animals: Selection of rats (Crl/SD rats, 7 weeks, male) for this study was based on rectal body temperature measured during the morning of the day of dosing. In addition, animals selected for this study were acclimated to both the rectal measurement procedure and to being handled and dosed to minimize spontaneous, stress-induced, increases in body temperature. The study was conducted in the animal care laboratories where the room temperature and humidity were kept. The rats were free to move and food and water during the study. Each rat was numbered with color line on the tail, housed in each cage and permitted the normal range of movement. Immediately before each body temperature was measured, they transferred to a single cage at each measurement. To reduce stress which affected the body temperature, the rats were covered with towels at the measurement. The thermistor probe was then carefully inserted into the rectum of each rat and left in place until the value on the digital display had stabilized.
Assays: On the day before dosing, rectal body temperatures were measured at 9:00, 10:00, 11:00, 12:30, 13:30, 14:30 and 15:30 to familiarize the animals with the measurement procedure prior to administration of the test or control treatments. The rats were also dosed by oral gavage without vehicle at 12:30 to acclimate and familiarized the animals with the handling and dosing procedure.
On the day of dosing, only rats whose rectal body temperatures were within the range of 37.0° C. to 37.7° C. were selected for this study. Rectal body temperatures were measured at 9:00, 10:00 and 11:00. Rats whose rectal body temperatures were over 37.9° C. at 10:00, and were outside the range of 37.0° C. to 37.7° C. at 11:00 were excluded from the study. The selected rats were divided to several groups based on their rectal body temperatures at 11:00. Rectal body temperatures of the selected rats were measured again at 12:30, and any rats whose rectal body temperature was 38.0° C. or greater were excluded from the study.
Following the group assignment, test compounds or vehicle was administrated to the rats. Each test compound was dissolved in 0.5% methylcellurose and the final concentration of the compound was adjusted to 1 mg/mL. Test compound was orally administrated in a volume 10 mL/kg once. 10 mL/kg of vehicle (0.5% methylcellurose) was administered to the vehicle group. The rectal body temperatures were measured 0.5, 1 and 2 hrs after the administration. The study was conducted in the animal care laboratories where the room temperature and humidity were kept.
Body temperature increase (ΔTb) was calculated from the difference from an average of the vehicle group at each time point.

human recombinant TRPV1 [3] = molecular target: T1, human recombinant TRPV1; assay: TRPV1 pH-Based Assay (Protocol 2, Ca2+ response in TRPV1/CHO cells, Fura-2); assay type: cell-based; settings: TRPV1/CHO cells, pH 5.0-5.1; read-out: IC50 value by the pH-Based Assay
Procedure, shortened: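 CHO cells stably expressing human TRPV1, Fura-2 loaded, given compound (1% DMSO in 10× stock) before acid challenge to final pH 5.0-5.1 (3.2 or 3.3 mM H2SO4). 340/380 nm ratio recorded at 0.5 Hz; maximal ratio after agonist addition versus 16-point baseline used as response.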

T1 sequence (Q8NER1 whole entry): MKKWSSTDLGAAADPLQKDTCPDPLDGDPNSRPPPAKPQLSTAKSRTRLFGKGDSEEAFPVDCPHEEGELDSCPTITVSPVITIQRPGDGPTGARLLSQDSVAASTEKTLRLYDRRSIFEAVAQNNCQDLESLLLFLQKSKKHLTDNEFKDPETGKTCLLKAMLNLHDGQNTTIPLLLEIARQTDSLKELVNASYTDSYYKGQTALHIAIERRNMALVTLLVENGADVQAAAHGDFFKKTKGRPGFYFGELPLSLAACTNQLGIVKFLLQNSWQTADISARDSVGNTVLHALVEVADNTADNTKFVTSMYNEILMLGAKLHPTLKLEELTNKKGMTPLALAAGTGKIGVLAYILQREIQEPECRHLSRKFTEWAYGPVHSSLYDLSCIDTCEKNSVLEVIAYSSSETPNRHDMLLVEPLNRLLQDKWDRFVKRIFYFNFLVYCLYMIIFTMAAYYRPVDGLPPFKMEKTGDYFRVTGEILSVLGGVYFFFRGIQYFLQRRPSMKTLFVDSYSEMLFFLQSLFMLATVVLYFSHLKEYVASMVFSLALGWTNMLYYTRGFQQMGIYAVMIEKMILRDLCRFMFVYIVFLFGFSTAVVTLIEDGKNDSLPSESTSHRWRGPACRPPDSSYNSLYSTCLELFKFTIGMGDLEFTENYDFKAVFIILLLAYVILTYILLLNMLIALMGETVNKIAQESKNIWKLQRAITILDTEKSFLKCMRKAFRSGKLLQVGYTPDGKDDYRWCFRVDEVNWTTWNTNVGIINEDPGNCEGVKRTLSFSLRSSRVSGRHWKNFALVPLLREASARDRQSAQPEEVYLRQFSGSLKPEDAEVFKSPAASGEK

| IC50 (human recombinant TRPV1 [1]) [µM] | Body temperature increase ΔTb [2] [°C] | IC50 (human recombinant TRPV1 [3]) [µM] | Body temperature increase [2] | SMILES |
| --- | --- | --- | --- | --- |
| ≤ 0.05 | 0.16 | ≤ 0.05 | – | Cc1cc(NC(=O)N2CCC(F)(c3ncc(C[C@@H](O)CO)cc3F)CC2)ccc1OC(F)(F)F [ACP, (R)-4-(5-(2,3-dihydroxypropyl)-3-fluoropyridin-2-yl)-4-fluoro-N-(3-methyl-4-(trifluoromethoxy)phenyl)piperidine-1-carboxamide] |
| ≤ 0.05 | – | ≤ 0.05 | less than 0.5 °C | O=C(Nc1nc2ccc(F)cc2s1)N1CCN(c2ncc(C[C@@H](O)CO)cc2Cl)CC1 [ACV, (R)-4-(3-chloro-5-(2,3-dihydroxypropyl)pyridin-2-yl)-N-(6-fluorobenzo[d]thiazol-2-yl)piperazine-1-carboxamide] |
| – | – | ≤ 0.05 | less than 0.5 °C | Cc1cc(NC(=O)N2CC=C(c3ncc(C[C@@H](O)CO)cc3F)CC2)ccc1C(F)(F)F [ACA, (R)-5-(2,3-dihydroxypropyl)-3-fluoro-N-(3-methyl-4-(trifluoro-methyl)phenyl)-5′,6′-dihydro-[2,4′-bipyridine]-1′(2′H)-carboxamide] |
| ≤ 0.05 | – | – | less than 0.5 °C | Cc1ccc2nc(NC(=O)N3CCN(c4ncc(C[C@H](O)CO)cc4Cl)CC3)sc2c1 [ADX] |
| ≤ 0.05 | – | ≤ 0.05 | less than 0.5 °C | O=C(Nc1nc2ccc(F)cc2s1)N1CCN(c2ncc(C[C@H](O)CO)cc2Cl)CC1 [ADR] |
| ≤ 0.05 | – | ≤ 0.05 | less than 0.5 °C | Cc1ccc2nc(NC(=O)N3CCN(c4ncc(C[C@@H](O)CO)cc4F)CC3)sc2c1 [ACY, (R)-4-(5-(2,3-dihydroxypropyl)-3-fluoropyridin-2-yl)-N-(6-methylbenzo[d]-thiazol-2-yl)piperazine-1-carboxamide] |
| – | 0.03 | ≤ 0.05 | – | Cc1cc(NC(=O)N2CC=C(c3ncc(C[C@H](O)CO)cc3F)CC2)ccc1OC(F)(F)F [ABZ, (S)-5-(2,3-dihydroxypropyl)-3-fluoro-N-(3-methyl-4-(trifluoromethoxy)-phenyl)-5′,6′-dihydro-[2,4′-bipyridine]-1′(2′H)-carboxamide] |
| ≤ 0.05 | – | ≤ 0.05 | less than 0.5 °C | Cc1ccc2nc(NC(=O)N3CCN(c4ncc(C[C@@H](O)CO)cc4Cl)CC3)sc2c1 [ADU] |
| ≤ 0.05 | – | ≤ 0.05 | less than 0.5 °C | O=C(Nc1nc2ccc(Cl)cc2s1)N1CCN(c2ncc(C[C@H](O)CO)cc2Cl)CC1 [ADW] |
| – | – | ≤ 0.05 | less than 0.5 °C | Cc1cc(NC(=O)N2CC=C(c3ncc(C[C@@H](O)CO)cc3Cl)CC2)ccc1C(F)(F)F [AAW, (R)-4-(3-Chloro-5-(2,3-dihydroxypropyl)pyridin-2-yl)-N-(3-methyl-4-(trifluoromethyl)phenyl)-5,6-dihydropyridine-1(2H)-carboxamide] |
| ≤ 0.05 | – | ≤ 0.05 | less than 0.5 °C | Cc1cc(NC(=O)N2CC=C(c3ncc(C[C@H](O)CO)cc3F)CC2)ccc1C(F)(F)F [ABY, (S)-5-(2,3-dihydroxypropyl)-3-fluoro-N-(3-methyl-4-(trifluoromethyl)phenyl)-5′,6′-dihydro-[2,4′-bipyridine]-1′(2′H)-carboxamide] |
| – | – | ≤ 0.05 | less than 0.5 °C | O=C(Nc1ccc(C(F)(F)F)c(Cl)c1)N1CC=C(c2ncc(C[C@@H](O)CO)cc2Cl)CC1 [AAK, (R)-N-(3-Chloro-4-(trifluoromethyl)phenyl)-4-(3-chloro-5-(2,3-dihydroxypropyl)pyridin-2-yl)-5,6-dihydropyridine-1(2H)-carboxamide] |

The remaining lines, values behind:

| SMILES | IC50 (human recombinant TRPV1 [1]) [µM] | Body temperature increase ΔTb [2] [°C] | IC50 (human recombinant TRPV1 [3]) [µM] | Body temperature increase [2] |
| --- | --- | --- | --- | --- |
| C[C@H]1CN(c2ncc(C[C@H](O)CO)cc2Cl)CCN1C(=O)Nc1nc2ccc(Cl)cc2s1 [AEG] | ≤ 0.05 | – | – | less than 0.5 °C |
| O=C(Nc1nc2ccc(F)cc2s1)N1CCN(c2ncc(C[C@H](O)CO)cc2F)CC1 [ADD, (S)-4-(5-(2,3-dihydroxypropyl)-3-fluoropyridin-2-yl)-N-(6-fluorobenzo[d]-thiazol-2-yl)piperazine-1-carboxamide] | – | – | ≤ 0.05 | less than 0.5 °C |
| O=C(Nc1nc2ccc(Cl)cc2s1)N1CCN(c2ncc(C[C@H](O)CO)cc2F)CC1 [ADE, (S)-N-(6-chlorobenzo[d]thiazol-2-yl)-4-(5-(2,3-dihydroxypropyl)-3-fluoropyridin-2-yl)piperazine-1-carboxamide] | ≤ 0.05 | – | ≤ 0.05 | less than 0.5 °C |
| Cc1cc2nc(NC(=O)N3CCN(c4ncc(C[C@@H](O)CO)cc4F)CC3)sc2cc1C [ACZ, (R)-4-(5-(2,3-dihydroxypropyl)-3-fluoropyridin-2-yl)-N-(5,6-dimethylbenzo[d]thiazol-2-yl)piperazine-1-carboxamide] | – | 0.24 | ≤ 0.05 | – |
| O=C(Nc1nc2ccc(Cl)cc2s1)N1CCN(c2ncc(C[C@@H](O)CO)cc2Cl)CC1 [ADT] | ≤ 0.05 | – | ≤ 0.05 | less than 0.5 °C |
| O=C(Nc1nc2ccccc2s1)N1CCN(c2ncc(C[C@@H](O)CO)cc2Cl)CC1 [ADV] | – | – | ≤ 0.05 | less than 0.5 °C |
| O=C(Nc1nc2ccc(Cl)cc2s1)N1CCN(c2ncc(C[C@@H](O)CO)cc2F)CC1 [ACX, (R)-N-(6-chlorobenzo[d]thiazol-2-yl)-4-(5-(2,3-dihydroxypropyl)-3-fluoropyridin-2-yl)piperazine-1-carboxamide] | ≤ 0.05 | – | ≤ 0.05 | less than 0.5 °C |
| C[C@@H]1CN(c2ncc(C[C@@H](O)CO)cc2F)CCN1C(=O)Nc1nc2ccc(Cl)cc2s1 [ADK, (R)-N-(6-chlorobenzo[d]thiazol-2-yl)-4-{5-[(R)-2,3-dihydroxypropyl]-3-fluoropyridin-2-yl}-2-methylpiperazine-1-carboxamide] | – | – | ≤ 0.05 | less than 0.5 °C |
| O=C(Nc1nc2ccc(F)cc2s1)N1CCN(c2ncc(C[C@@H](O)CO)cc2F)CC1 [ACW, (R)-4-(5-(2,3-dihydroxypropyl)-3-fluoropyridin-2-yl)-N-(6-fluorobenzo[d]-thiazol-2-yl)piperazine-1-carboxamide] | ≤ 0.05 | – | ≤ 0.05 | less than 0.5 °C |
